# US12612413B2, “Heteroaryl compounds as inhibitors of programmed necrosis pathway, composition and method using the same” (ACCRO BIOSCIENCE INC., priority 2020, dated 2026)
# Tested on: HT-29 cells
# Assay: HT-29 cell viability (necroptosis) assay
# Format: cell-based
# Conditions: Homo sapiens, TNF-α (40 ng/mL), Smac mimetic (100 nM), z-VAD (20 μM), 40 h, from survival rate curve
# Description: Human colon cancer HT-29 cells were used in a necroptosis assay. For this assay, HT-29 cells were added to 96-well plates. The compounds at different concentrations (0.3, 1.0, 3.0, 10.0, 20.0 μM) were then preprocessed for two hours. TNF-α (40 ng/mL), Smac mimetic (100 nM) and z-VAD (20 μM) were added, and the mixture was incubated for 40 h. Quantitative analysis of cell viability was conducted. DMSO pretreatment group was used as a negative control. Concentration for 50% of maximal effect was calculated according to the curve of the survival rate measured at different concentrations. FIG. 1 depicts the EC50 curves of compound A16.
row,Structure (SMILES),EC50 [nM]
1,Cc1ccc(O)cc1Nc1ccnc2cc3c(cc12)S(=O)(=O)C(C)(C)C3=O [Compound B13],520
2,"COC1=CS(=O)(=O)c2cc3c(Nc4ccc5scnc5c4)ccnc3cc21 [Compound A12, 8-(benzo[d]thiazol-5-ylamino)-3-methoxythieno[2,3-g]quinoline 1,1-dioxide]",1030
3,"O=S1(=O)C=C(OCCO)c2cc3nccc(Nc4ccc5scnc5c4)c3cc21 [Compound A16, 8-(benzo[d]thiazol-5-ylamino)-3-(2-hydroxyethoxy)thieno[2,3-g]quinoline 1,1-dioxide]",1290
4,CCC1=Cc2cc3nccc(Nc4ccc5scnc5c4)c3cc2S1(=O)=O [Compound A4],980
5,O=S1(=O)C=C(OC2CCNC2)c2cc3nccc(Nc4ccc5scnc5c4)c3cc21 (stereo not drawn) [Compound A113],1990
6,O=S1(=O)C=C(c2cccnc2)c2cc3nccc(Nc4ccc5scnc5c4)c3cc21 [Compound A27],490
7,O=S1(=O)C=C(C2CC2)c2cc3nccc(Nc4cc(O)c(F)cc4F)c3cc21 [Compound A100],950
8,Cc1ccc(O)cc1Nc1ccnc2cc3c(cc12)S(=O)(=O)C=C3 [Compound A107],1060
9,O=S1(=O)C=C(O[C@H]2CCOC2)c2cc3nccc(Nc4ccc5scnc5c4)c3cc21 [Compound A117],390
10,O=S1(=O)C=Cc2cc3nccc(Nc4ccc5scnc5c4)c3cc21 [Compound A2],1020
11,O=S1(=O)C=C(O[C@@H]2CCOC2)c2cc3nccc(Nc4ccc5scnc5c4)c3cc21 [Compound A116],260
12,CC1(C)C(=O)c2cc3nccc(Nc4cc(O)c(F)cc4F)c3cc2S1(=O)=O [Compound B15],720

# Same assay, conditions: Homo sapiens, compound at 20 μM, TNF-α (40 ng/mL), Smac mimetic (100 nM), z-VAD (20 μM), 40 h, read-out: HT-29(20 μM) Survival
row,Structure (SMILES),viability at 20 µM [%]
1,COc1ccc(C2CS(=O)(=O)c3cc4c(Nc5ccc6scnc6c5)ccnc4cc32)cc1 (stereo not drawn) [Compound B24],16.5
2,CC1=Cc2cc3nccc(Nc4cc(F)cc(F)n4)c3cc2S1(=O)=O [Compound A70],16.5
3,CC1=Cc2cc3nccc(Nc4cc(O)cc(Br)c4)c3cc2S1(=O)=O [Compound A60],13.9
4,CC1c2cc3nccc(Nc4ccc5scnc5c4)c3cc2S(=O)(=O)C1(C)CC1CC1 (stereo not drawn) [Compound B7],19.1
5,CC1=Cc2cc3nccc(Nc4ccc5[nH]nnc5c4)c3cc2S1(=O)=O [Compound A39],63.5
6,O=S1(=O)c2cc3c(Nc4ccc5scnc5c4)ccnc3cc2OCC12CC2 [Compound B25],70.7
7,CC1=CS(=O)(=O)c2cc3c(Nc4ccc5cn[nH]c5c4)ccnc3cc21 [Compound A72],40.7
8,CC1(C)C(=O)c2cc3nccc(Nc4n[nH]c5ccc(F)cc45)c3cc2S1(=O)=O [Compound B19],7.2
9,CC1=Cc2cc3nccc(Nc4ccc5ncnn5c4)c3cc2S1(=O)=O [Compound A68],11.9
10,CC1=CS(=O)(=O)c2cc3c(Nc4ccc(O)cc4C)ccnc3cc21 [Compound A80],14.4
11,CC1=Cc2cc3nccc(Nc4ccc(O)c(Cl)c4)c3cc2S1(=O)=O [Compound A55],25.6
12,CC1=CS(=O)(=O)c2cc3c(Nc4cc(O)cc(C(F)(F)F)c4)ccnc3cc21 [Compound A82],11
13,CC1=Cc2cc3nccc(Nc4cc(O)ccc4C)c3cc2S1(=O)=O [Compound A46],13.1
14,C=CCC1(C)C(=O)c2cc3nccc(Nc4ccc5scnc5c4)c3cc2S1(=O)=O (stereo not drawn) [Compound B6],42.5
15,CCC1(C)C(C)c2cc3nccc(Nc4ccc5scnc5c4)c3cc2S1(=O)=O (stereo not drawn) [Compound B5],39.2
16,CC(=O)Nc1ccc(C)c(Nc2ccnc3cc4c(cc23)S(=O)(=O)C(C)=C4)c1 [Compound A48],7.8
17,"O=S1(=O)C=C(Br)c2cc3nccc(Nc4ccc5scnc5c4)c3cc21 [Compound A1, 8-(benzo[d]thiazol-5-ylamino)-3-bromothieno[2,3-g]quinoline 1,1-dioxide]",4.5
18,CC1=C(C)S(=O)(=O)c2cc3c(Nc4cc(N)ccc4C)ccnc3cc21 [Compound A87],15.5
